Assays:
Dermacentor variabilis [1] = test: Example 3: efficacy of afoxolaner and fluralaner liquid formulations per os in cats against Dermacentor variabilis; format: in vivo; settings: treatment group 2, 0.075 mg/kg daily (Days 0-29), liquid formulation
Description: Efficacy of Various Formulations of Isoxazoline Administered per os, i.e. by mouth, to Cats for the Treatment and Control of Dermacentor variabilis.
Methods: A pool of 36 cats are to be preliminarily infested with ˜50 unfed adult D. variabilis ticks in order to produce cats that can suitably sustain a reliable infestation rate, defined as approximately 25% of attached ticks being live at the end of a 48-hour period. The 30 cats with the highest live attached tick counts are to be selected for inclusion in the study. The cats are to be randomly assigned to a single control group and 4 treatment groups with 6 cats per treatment group.
(§1) The cats are to be housed individually during the study period and are to be fed a commercial dry cat food ration with ad libitum access to water.
Each cat in a treatment group (test groups 2-5) is to receive by mouth, preferably in combination with feed, a liquid formulation of isoxazoline. The dosage is to be administered to the cats on each of days 0-29 according to TABLE 2.
(§2) Cats in the control group are not to receive isoxazoline or any other tick control treatment. Each cat in the treatment group is to be offered its daily ration (dry food) and the individual doses of liquid formulation are to be administered after the individual cat has eaten at least 25% of its total daily ration. […]

[2] = Example 1: average plasma concentration of isoxazoline in cats, daily oral dosing; format: in vivo, cat; settings: 1.125 mg/kg daily
Description: (§3) Each cat in the treatment group is to receive by mouth, preferably in combination with feed, a liquid formulation of isoxazoline. The dosage of 1.125 mg/kg is to be administered to the cats on each of days 0-29.
Using the same study method as described above, blood is to be drawn at 72, 168, 336, 504, 720 and 888 hours after the initial dose of isoxazoline is administered. The average concentration of isoxazoline in the blood can then be determined.

[3] = Example 4: plasma concentration of isoxazoline in cats given medicated feed; format: in vivo, cat; settings: medicated feed dosed at 1.5 mg/kg, five different feed formulations, Day 0 to Day 30
Description: Plasma Concentration of Isoxazoline in Cats when Isoxazoline is Administered in a Medicated Feed Dosed at 1.5 mg/kg of the Cat's Weight.
Methods: A pool of 30 cats are to be assigned to 5 groups of 6 cats per group by weight to minimize variation between and within the groups. Each group will be given a different feed formulation containing isoxazoline and the blood level of isoxazoline over the one month period following the single daily dose will be determined.
(§4) The cats are to be housed individually during the study period and are to have ad libitum access to water.
There is to be an initial acclimation period of at least 4 days during which cats are to be transitioned from a standard certified commercial cat feed to an unmedicated version of the daily cat feed. During the acclimation period, the cats are to be allowed 15 minutes/day to consume the feed.
Each medicated feed formulation should be able to deliver approximately 14.1 g/kg of daily feed containing isoxazoline. The amount of medicated feed for each cat is to be determined according to the most recent body weight of the cat prior to the first day (Day 0) of the study. Each medicated feed is to be provided for 15 minutes daily from Day 0 up to and including Day 30. Any uneaten medicated feed remaining after each daily 15 minute timed offering period is to be removed, weighed and the amount recorded. […]

Dermacentor variabilis [4] = test: Example 1: efficacy of isoxazoline per os in cats against Dermacentor variabilis (attached tick comb counts); format: in vivo
Description: Efficacy of Isoxazoline Administered per os, i.e. by mouth, to Cats for the Treatment and Control of Dermacentor variabilis.
Methods: A pool of 14 cats are to be preliminarily infested with ˜50 unfed adult D. variabilis ticks in order to produce cats that can suitably sustain a reliable infestation rate, defined as approximately 25% attached ticks being live at the end of a 48-hour period. The 12 cats with the highest live attached tick counts are to be selected for inclusion in the study. The cats are to be divided into a control group and a treatment group with 6 cats in each group.
as §1, §3
as §2, with “ration. After receiving the dose of isoxazoline, the cats are to be allowed to continue eating. This mimics incorporating the isoxazoline in feed.” for “ration.”

Dermacentor variabilis [5] = test: Example 5: efficacy of isoxazoline in medicated feed in cats against Dermacentor variabilis; format: in vivo; settings: 1 mg/kg, days 0-29, by day 14
Description: (§5) Efficacy of Isoxazoline when Isoxazoline is Administered in a Medicated Feed for the Treatment and Control of Dermacentor variabilis.
Methods: A pool of 24 cats are to be preliminarily infested with ˜50 unfed adult D. variabilis ticks in order to produce cats that can suitably sustain a reliable infestation rate, defined as approximately 25% of attached ticks being live at the end of a 48-hour period. The 18 cats with the highest live attached tick counts are to be randomly assigned to a single control group (Group 1) and 2 different medicated feed treatment groups (Groups 2 and 3) with 6 cats per group. The remaining 6 cats are to be assigned to a final medicated feed treatment group (Group 4).
as §4
(§6) Each cat in a treatment group (Groups 2-4) is to receive a medicated daily feed from study days 0-29. Each medicated daily feed (Groups 2-4) is to be offered to the cats for 1 hour on each of days 0-29 according to test groups in TABLE 3.
Cats in the control group are not to receive isoxazoline or any other tick control treatment. […]

[6] = Example 5: plasma concentration of isoxazoline in cats given medicated daily feed; format: in vivo, cat
Description: as §6
Using the same study method as described above, blood is to be drawn at day 0 (day of the first administration of medicated feed) and days 2, 4, 7, 10, 14, 21 and 30 after the initial dose of isoxazoline is administered on day 0. The average concentration of isoxazoline in the blood for different dosage levels can then be determined.

Dermacentor variabilis [7] = test: Example 6: efficacy of Mivorilaner in medicated feed in cats against Dermacentor variabilis (FIG. 1); format: in vivo; settings: days 0-29, within 16 days
Description: FIG. 1. A graph of the arithmetic mean efficacy for treatment Group 2 (stars) and Group 3 (horizontal hash). Percent efficacy=[AM fleas CONTROL−AM fleas TREATED]/AM fleas CONTROL. Efficacy measured at 2, 16, 27, 30, and 37 days after Initial Treatment, with either 0.75 mg of Mivorilaner/kg (Group 2) or 1.5 mg of Mivorilaner/kg (Group 3).
as §5
Methods: A pool of cats are to be preliminarily infested with ˜100 unfed adult C. felis fleas in order to produce cats that can suitably sustain a reliable infestation rate, defined as approximately 50% retention of live fleas at the end of a 48-hour period. The cats with the highest live flea counts are to be randomly assigned to a single control group (Group 1) and 2 medicated feed treatment groups with 4 cats per group. The cats in groups 2 and 3 will receive Mivorilaner.
as §4
Each cat in a treatment group (Groups 2 and 3) is to receive a medicated daily feed from study days 0-29 according to TABLE 4.
The cats are to be fasted overnight prior to each daily treatment. […]

With `O=C(CNC(=O)c1ccc(C2=NOC(c3cc(Cl)cc(C(F)(F)F)c3)(C(F)(F)F)C2)c2ccccc12)NCC(F)(F)F` (centres unmarked) [Afoxolaner, 4-{5-[3-chloro-5-(trifluoromethyl)phenyl]-5-(trifluoromethyl)-4,5-dihydroisoxazol-3-yl}-N-{2-oxo-2-[(2,2,2-trifluoroethyl)amino]ethyl}naphthalene-1-carboxamide] the efficacy (Dermacentor variabilis [1]; by day 14) was “greater than 80%” and the efficacy (Dermacentor variabilis [1]; by day 21) was “greater than 90%”.

With `O=C(CNC(=O)c1sc(C2=NO[C@@](c3cc(Cl)c(F)c(Cl)c3)(C(F)(F)F)C2)c2c1CCC2)NCC(F)F` [mivorilaner, 3-[(5S)-5-(3,5-dichloro-4-fluorophenyl)-5-(trifluoromethyl)-4,5-dihydroisoxazol-3-yl]-N-[2-[(2,2-difluoroethyl)amino]-2-oxoethyl]-5,6-dihydro-4H-cyclopenta[c]thiophene-1-carboxamide] the average plasma concentration ([2]; day 3) was “about 1011 ng/mL”, the average plasma concentration ([2]; day 21) was “about 4088” and the average plasma concentration ([2]; day 37, approximately 8 days after the final dose) was “about 3025 ng/mL”. The mean plasma concentrations [3] was “consistent with those achieved in Examples 1 and 2”, the “reduction in attached tick counts over the control group” value (Dermacentor variabilis [4]; 1.125 mg/kg by mouth daily days 0-29, within 7 days) was “at least 60%” and the “reduction in attached tick counts over the control group” value (Dermacentor variabilis [4]; 1.125 mg/kg by mouth daily days 0-29, within 14 days) was 90%. The efficacy (Dermacentor variabilis [5]; treatment group 2, medicated daily feed) was “greater than 95%”, the efficacy (Dermacentor variabilis [5]; treatment group 3, medicated daily feed) was “greater than 95%” and the “plasma concentrations relative to treatment groups 2 and 3” value ([6]; treatment group 4, 3 mg/kg daily, versus groups 2 and 3, 1 mg/kg daily) was 2.5-4 times higher. The “plasma concentrations, comparison of feed formulations” value ([6]; treatment groups 2 and 3, 1 mg/kg daily, different feed formulations) was “consistent between treatment groups 2 and 3”, the “efficacy (percent reduction in attached live and moribund tick counts)” value (Dermacentor variabilis [7]; treatment group 2, 0.75 mg/kg daily in wet cat food) was 100% and the “efficacy (percent reduction in attached live and moribund tick counts)” value (Dermacentor variabilis [7]; treatment group 3, 1.5 mg/kg daily in wet cat food) was 100%.
